Consider one molecule from publication PMC3273346, “BPR1J-097, a novel FLT3 kinase inhibitor, exerts potent inhibitory activity against AML” (British Journal of Cancer, 2011).

Entries after “also recorded” stand apart in the source; their conditions may differ.

The term IC50 denotes the midpoint of a concentration-inhibition curve.

For one assay, the system named is MOLM-13 cells. The assay is described as follows: Cellular proliferation assay (MTS), MOLM-13. The format is cell-based. Conditions: Homo sapiens, AML-FLT3-ITD (heterozygous), 72 h, mean±s.d. of three experiments. The method, then: (§1) MOLM-13 cells were purchased from the Deutsche Sammlung von Microorganismen und Zellkulturen GmbH (Braunschweig, Germany). RS4;11, MV4-11, U937, and K562 cell lines were obtained from the American Type Culture Collection (ATCC, Manassas, VA, USA). […] HEK293T- and FLT3-transfected HEK293T cells were cultured in DMEM (Invitrogen) medium with 10% FBS.
(§2) Proliferation assays were performed by seeding 10 000 cells per well in a 96-well culture plate. […] Cell viability was quantitated using the MTS method (Promega) according to the manufacturer's recommended protocol. The results were determined by measuring absorbance at 490 nm using a plate reader (Victor2; Perkin-Elmer).

The next assay deals with MV4-11 cells. Description: Cellular proliferation assay (MTS), MV4-11. It is filed as cell-based. Conditions: Homo sapiens, AML-FLT3-ITD (homozygous), 72 h, mean±s.d. of three experiments. The method, then:
as §1, §2

The next assay relates to U937 cells. Description: Cellular proliferation assay (MTS), U937. It is filed as cell-based. As to conditions: Homo sapiens, U-937, AML-FLT3-negative, 72 h, mean±s.d. of three experiments. The method, then:
as §1, §2

For a further assay, the system named is RS4;11 cells. Description: Cellular proliferation assay (MTS), RS4;11. It is filed as cell-based. Conditions: Homo sapiens, RS4-11, 72 h, read-out: Proliferation GI50, RS4;11. The method, then:
as §1, §2

The subject of another assay is K562 cells. The assay is described as follows: Cellular proliferation assay (MTS), K562. It is filed as cell-based. Conditions: Homo sapiens, CML-Bcr-Abl FLT3-negative, 72 h, mean±s.d. of three experiments. The method, then:
as §1, §2

A further assay has as its system FLT3-WT. Details: method as in Shankar et al (2007). Conditions: previously reported; ref Shankar et al (2007); read-out: IC50 for inhibition of FLT3-WT; cited from earlier work.
The test system of assay [1] is MOLM-13 xenograft tumours. Details: method as in Shankar et al, 2007. As to conditions: ref Shankar et al, 2007; cited from earlier work.

For `Cc1ccc(F)c(NC(=O)Nc2ccc(-c3cccc4[nH]nc(N)c34)cc2)c1` [ABT-869], the GI50 in the assay on MOLM-13 cells is 38 ± 14 nM; with MV4-11 cells it was 82 ± 17 nM; in the assay on U937 cells it was more than 18000 nM; in the assay on RS4;11 cells it was 9200 ± 2700 nM; in the assay with K562 cells, more than 20000 nM. In addition, the half-inhibitory concentration (IC50) in the assay with FLT3-WT is 4 nM. Besides, the “Effect on MOLM-13 xenograft tumours” value in assay [1] is recorded as “unable to shrink the MOLM-13 xenograft tumours; also recorded: not able to produce regressions of tumours”.
